Structures are written as SMILES.

The test system of one data set is Pythium ultimum. In words: Pythium ultimum / liquid culture (seedling damping off). Type of data set: cell-based. Particulars: Globisporangium ultimum, potato dextrose broth, 24° C., 2-3 days after application, read-out: control of Pythium ultimum (inhibition of growth, photometric). How it is done: Pythium ultimum/Liquid Culture (Seedling Damping Off) Mycelia fragments and oospores of a newly grown liquid culture of the fungus were directly mixed into nutrient broth (potato dextrose broth). After placing a DMSO solution of test compound into a 96-well format microtiter plate at an application rate of 200 ppm, the nutrient broth containing the fungal mycelia/spore mixture was added. The test plates were incubated at 24° C. and the inhibition of growth was determined photometrically 2-3 days after application.

Data set [1] deals with Glomerella lagenarium (Colletotrichum lagenarium). The experiment in a line: Glomerella lagenarium (Colletotrichum lagenarium) / liquid culture (anthracnose). Format: cell-based. Particulars: Colletotrichum orbiculare, PDB, 24° C., 3-4 days after application, read-out: control of Glomerella lagenarium (inhibition of growth, photometric). An outline of the steps:
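Cryopreserved conidia suspended in potato dextrose broth were added to compound in DMSO applied at 200 ppm. Plates incubated at 24° C; growth inhibition read photometrically 3-4 days after application.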

The next data set relates to Pyrenophora teres. The experiment in a line: Pyrenophora teres / barley / leaf disc preventative (net blotch). Format: in vivo. The note with it: foliar, barley leaf segments cv Hasso, inoculated two days after application, assessed 5-7 days after application, read-out: control of Pyrenophora teres (disease control compared to untreated). The procedure, abridged:
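Barley cv Hasso leaf segments on agar sprayed with compound at 200 ppm, inoculated with spores two days later. Kept at 20 °C, 65% RH, 12/12 h light; disease control versus untreated scored 5-7 days after application.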

Data set [2] deals with Mycosphaerella graminicola (Septoria tritici). In words: Mycosphaerella graminicola (Septoria tritici) / liquid culture (Septoria blotch). Particulars: Zymoseptoria tritici, PDB, 24° C., 4-5 days after application, read-out: control of Mycosphaerella graminicola (inhibition of growth, photometric). Type of data set: cell-based. An outline of the steps: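 Cryo-stored conidia in potato dextrose broth were added to compound in DMSO at 200 ppm in microtiter plates. Plates were incubated at 24 °C and growth inhibition was measured photometrically 4–5 days after application.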

In the next data set the test system is Plasmopara viticola. In words: Plasmopara viticola / grape / leaf disc preventative. Particulars: foliar, grape vine leaf disks, inoculated 1 day after application, assessed 6-8 days after application, read-out: control of Plasmopara viticola (percent disease control compared to untreated). Format: in vivo.
Data set [3] deals with Phaeosphaeria nodorum (Septoria nodorum). In words: Phaeosphaeria nodorum (Septoria nodorum) / wheat / leaf disc preventative (glume blotch). Format: in vivo. The note with it: Parastagonospora nodorum, foliar, wheat leaf segments cv Kanzler, inoculated 2 days after application, assessed 5-7 days after application, read-out: control of Phaeosphaeria nodorum (percent disease control compared to untreated). An outline of the steps:
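Wheat leaf segments (cv Kanzler) on agar sprayed with compound at 200 ppm, inoculated with spores 2 days later. Incubated at 20° C., 75% relative humidity, 12/12 h light/dark; percent disease control versus untreated scored 5-7 days after application.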

The test system of another data set is Gaeumannomyces graminis. The experiment in a line: Gaeumannomyces graminis / liquid culture (take-all of cereals). Format: cell-based. Particulars: PDB, 24° C., 4-5 days after application, read-out: control of Gaeumannomyces graminis (inhibition of growth, photometric). The procedure, abridged:
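Mycelial fragments in potato dextrose broth were exposed to compound from DMSO at 200 ppm in microtiter plates. Incubation at 24 °C; growth inhibition read photometrically 4-5 days after application.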

Data set [4] has as its system Monographella nivalis (Microdochium nivale). The experiment in a line: Monographella nivalis (Microdochium nivale) / liquid culture (foot rot cereals). Type of data set: cell-based. The note with it: PDB, 24° C., 4-5 days after application, read-out: control of Monographella nivalis (inhibition of growth, photometric). The procedure, abridged:
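Cryostored conidia in potato dextrose broth were added to test compound dispensed from DMSO at 200 ppm. Plates were kept at 24° C, and growth inhibition was read photometrically 4-5 days after application.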

Data set [5] deals with Botryotinia fuckeliana (Botrytis cinerea). The experiment in a line: Botryotinia fuckeliana (Botrytis cinerea) / liquid culture (gray mould). Format: cell-based. The note with it: Vogels broth, 24° C., 3-4 days after application, read-out: control of Botryotinia fuckeliana (inhibition of growth, photometric). An outline of the steps: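 Botrytis cinerea conidia in Vogels broth were added to test compound applied from DMSO at 200 ppm. Incubation at 24 °C; growth inhibition read photometrically 3-4 days after application.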

For data set [6], the system named is Puccinia recondita f. sp. Tritici. The experiment in a line: Puccinia recondita f. sp. tritici / wheat / leaf disc preventative (brown rust). The note with it: foliar, wheat leaf segments cv Kanzler, inoculated 1 day after application, assessed 7-9 days after application, read-out: control of Puccinia recondita f. sp. Tritici (percent disease control compared to untreated). Format: in vivo. An outline of the steps:
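Leaf segments of wheat cv Kanzler on agar were sprayed with formulated compound at 200 ppm and inoculated with spores 1 day later. Incubation was at 19° C, 75% relative humidity and 12/12 h light/dark. Activity was scored 7-9 days after application as percent disease control versus untreated.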

Data set [7] concerns Thanatephorus cucumeris (Rhizoctonia solani). In words: Thanatephorus cucumeris (Rhizoctonia solani) / liquid culture (foot rot, damping-off). Type of data set: cell-based. The note with it: PDB, 24° C., 3-4 days after application, read-out: control of Thanatephorus cucumeris (inhibition of growth, photometric). The procedure, abridged: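 Mycelial fragments in potato dextrose broth exposed to test compounds at 200 ppm (from DMSO solution), incubated at 24° C. Growth inhibition read photometrically 3-4 days after application.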

A further data set concerns Sclerotinia sclerotiorum. In words: Sclerotinia sclerotiorum liquid culture (cottony rot / white mold). Format: cell-based. The note with it: PDB, 24° C., 3-4 days after application, read-out: control of Sclerotinia sclerotiorum (inhibition of growth, photometric). The procedure, abridged:
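Mycelia fragments of Sclerotinia sclerotiorum in potato dextrose broth were added to compound in DMSO. Cultures incubated at 24° C; growth inhibition determined photometrically 3-4 days after application.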

The test system of data set [8] is Mycosphaerella arachidis (Cercospora arachidicola). In words: Mycosphaerella arachidis (Cercospora arachidicola) / liquid culture (early leaf spot). Format: cell-based. Particulars: PDB, 24° C., 4-5 days after application, read-out: control of Mycosphaerella arachidis (inhibition of growth, photometric). The procedure, abridged:
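Conidia suspended in potato dextrose broth and added to test compound from DMSO solution at 200 ppm. Incubated at 24 °C; growth inhibition read photometrically 4-5 days after application.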

Data set [9] concerns Blumeria graminis f. Sp. Tritici (Erysiphe graminis f. Sp. Tritici). The experiment in a line: Blumeria graminis f. sp. tritici / wheat / leaf disc preventative (powdery mildew on wheat). Format: in vivo. The note with it: foliar, wheat leaf segments cv. Kanzler, inoculated 1 day after application, assessed 6-8 days after application, read-out: control of Blumeria graminis (percent disease control compared to untreated). The procedure, abridged: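 Wheat leaf segments (cv. Kanzler) on agar sprayed with formulated compound at 200 ppm, inoculated with powdery mildew 1 day later. Held at 20 °C, 60% RH, 24 h dark then 12 h/12 h light; percent disease control versus untreated scored 6-8 days after application.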

A further data set relates to Fusarium culmorum. The experiment in a line: microbe, parasite or virus in culture. Type of data set: cell-based. Particulars: read-out: control of Fusarium culmorum (inhibition of growth, photometric).

What is called melting point is the temperature, or range, at which the solid turns liquid. As a reminder, the inhibition is the change of the read-out against control, counted positive when it falls. Regarding `CCCCc1nc(N)n(-c2nc3cnccc3n2C2CCCCC2)n1` [Compound 6, 5-butyl-2-(1-cyclohexylimidazo[4,5-c]pyridin-2-yl)-1,2,4-triazol-3-amine], the melting point fell in the range of 163 to 165 °C. Besides, the inhibition at 20 ppm in the data set with Pythium ultimum was not below 80%. For the same compound, the inhibition at 20 ppm in [1] is not below 80%.

In turn, `CCn1c(-n2ncnc2N)nc2cncc(-c3ccccc3)c21` [Compound 19, 2-(1-ethyl-7-phenylimidazo[4,5-c]pyridin-2-yl)-1,2,4-triazol-3-amine] gave a melting point of 247 to 251 °C. Besides, the pest or weed control at 200 ppm in the data set with Pyrenophora teres was not below 80%. Besides, the inhibition at 20 ppm in data set [2] is not below 80%. Further, the pest or weed control at 200 ppm in the data set with Plasmopara viticola was not below 80%. In addition, in data set [3], the pest or weed control at 200 ppm is not below 80%. Also, the inhibition at 20 ppm with Gaeumannomyces graminis is not below 80%. Also, the inhibition at 20 ppm in data set [4] is not below 80%. For the same compound, in data set [5], the inhibition at 20 ppm was not below 80%. For the same compound, the inhibition at 20 ppm with Pythium ultimum is not below 80%. The pest or weed control at 200 ppm in data set [6] is not below 80%. In data set [1], the inhibition at 20 ppm is not below 80%. In addition, the inhibition at 20 ppm in [7] is not below 80%.

In turn, `CCn1c(-n2ncnc2N)nc2cncc(C)c21` [Compound 22, 2-(1-ethyl-7-methylimidazo[4,5-c]pyridin-2-yl)-1,2,4-triazol-3-amine] returned a melting point of 194 to 198 °C. Also, the pest or weed control at 200 ppm with Pyrenophora teres is not below 80%. The inhibition at 20 ppm in data set [2] was not below 80%. Also, in data set [3], the pest or weed control at 200 ppm is not below 80%. For the same compound, the inhibition at 20 ppm with Sclerotinia sclerotiorum was not below 80%. Moreover, the inhibition at 20 ppm with Gaeumannomyces graminis is not below 80%. The inhibition at 20 ppm in data set [4] was not below 80%. Besides, in data set [8], the inhibition at 20 ppm was not below 80%. For the same compound, in data set [5], the inhibition at 20 ppm was not below 80%. In addition, the inhibition at 20 ppm with Pythium ultimum is not below 80%. For the same compound, the pest or weed control at 200 ppm in [6] is not below 80%. Further, the inhibition at 20 ppm in [1] was not below 80%. The inhibition at 20 ppm in [7] is not below 80%.

As to `CCn1c(-n2ncnc2N)nc2cncc(-c3ccc(OC)nc3)c21` [Compound 59, 2-[1-ethyl-7-(6-methoxypyridin-3-yl)imidazo[4,5-c]pyridin-2-yl]-1,2,4-triazol-3-amine], the pest or weed control at 200 ppm (in [9]; in the data set with Pyrenophora teres; in [3]; in data set [6]) was not below 80% throughout. In addition, the inhibition at 20 ppm (in data set [2]; with Gaeumannomyces graminis; in [5]; in the data set on Pythium ultimum; in data set [1]; in data set [7]) was not below 80% in each case.

For `CCn1c(-n2ncnc2N)nc2cncc(-c3ccccc3C#N)c21` [Compound 85, 2-[2-(5-amino-1,2,4-triazol-1-yl)-1-ethylimidazo[4,5-c]pyridin-7-yl]benzonitrile], the pest or weed control at 200 ppm (in [9]; in the data set on Pyrenophora teres; in data set [6]) was not below 80% throughout. The inhibition at 20 ppm (in data set [2]; in the data set on Gaeumannomyces graminis; in [5]; with Pythium ultimum; in data set [1]; in [7]) was not below 80% each time.

Consider `CCn1c(-n2ncnc2N)nc2cncc(-c3cc(Cl)ccc3Cl)c21` [Compound 88, 2-[7-(2,5-dichlorophenyl)-1-ethylimidazo[4,5-c]pyridin-2-yl]-1,2,4-triazol-3-amine], for which the pest or weed control at 200 ppm (in the data set on Pyrenophora teres; in data set [3]; in data set [6]) was not below 80% throughout. Moreover, the inhibition at 20 ppm (in data set [2]; in the data set on Sclerotinia sclerotiorum; in the data set with Gaeumannomyces graminis; in data set [4]; in [5]; in [1]) was not below 80% each time. In addition, the inhibition at 20 ppm (in the data set with Fusarium culmorum; in data set [7]) was not below 80% in each case.

As for `CCn1c(-n2ncnc2N)nc2cncc(-c3ccc(Cl)c(Cl)c3F)c21` [Compound 100, 2-[7-(3,4-dichloro-2-fluorophenyl)-1-ethylimidazo[4,5-c]pyridin-2-yl]-1,2,4-triazol-3-amine], the pest or weed control at 200 ppm (in the data set with Pyrenophora teres; in data set [3]; in data set [6]) was not below 80% in each case. Moreover, the inhibition at 20 ppm (in data set [2]; in the data set with Sclerotinia sclerotiorum; with Gaeumannomyces graminis; in [4]; in [5]; in [1]) was not below 80% throughout. In addition, the inhibition at 20 ppm (in the data set on Fusarium culmorum; in data set [7]) was not below 80% in each case.

Regarding `CCCCCCO/N=C(/C)c1cncc2nc(-n3ncnc3N)n(CC)c12` [Compound 147], the pest or weed control at 200 ppm (with Pyrenophora teres; in data set [3]; in data set [6]) was not below 80% throughout. The inhibition at 20 ppm (in data set [2]; with Sclerotinia sclerotiorum; in [4]; in data set [8]; in data set [5]; in [1]) was not below 80% throughout. The inhibition at 20 ppm (with Fusarium culmorum; in data set [7]) was not below 80% each time.

Turning to `CCCn1c(-n2ncnc2N)nc2cncc(-c3ccccc3Cl)c21` [Compound 172, 2-[7-(2-chlorophenyl)-1-propyl-imidazo[4,5-c]pyridin-2-yl]-1,2,4-triazol-3-amine], the pest or weed control at 200 ppm (in the data set on Pyrenophora teres; in the data set with Plasmopara viticola; in data set [3]; in data set [6]) was not below 80% in each case. Besides, the inhibition at 20 ppm (in [2]; in the data set on Sclerotinia sclerotiorum; in the data set on Gaeumannomyces graminis; in [4]; in [5]; in the data set on Pythium ultimum) was not below 80% each time. The inhibition at 20 ppm in [1] and in data set [7] was not below 80% throughout.
